Assay results taken from ChEMBL document CHEMBL4177521, “Therapeutic Potential of Fatty Acid Amide Hydrolase, Monoacylglycerol Lipase, and N-Acylethanolamine Acid Amidase Inhibitors” (J Med Chem, 2017).

Legend:
[1] = target: T1, Fatty-acid amide hydrolase 2 (Homo sapiens, UniProt Q6GMR7); test: Inhibition of recombinant human N-terminal FLAG-tagged/C-terminal Myc-His6 tagged FAAH2 (32 to 579 residues) expressed in COS7 cell membranes; assay type: cell-based
T1 sequence (Q6GMR7 whole entry): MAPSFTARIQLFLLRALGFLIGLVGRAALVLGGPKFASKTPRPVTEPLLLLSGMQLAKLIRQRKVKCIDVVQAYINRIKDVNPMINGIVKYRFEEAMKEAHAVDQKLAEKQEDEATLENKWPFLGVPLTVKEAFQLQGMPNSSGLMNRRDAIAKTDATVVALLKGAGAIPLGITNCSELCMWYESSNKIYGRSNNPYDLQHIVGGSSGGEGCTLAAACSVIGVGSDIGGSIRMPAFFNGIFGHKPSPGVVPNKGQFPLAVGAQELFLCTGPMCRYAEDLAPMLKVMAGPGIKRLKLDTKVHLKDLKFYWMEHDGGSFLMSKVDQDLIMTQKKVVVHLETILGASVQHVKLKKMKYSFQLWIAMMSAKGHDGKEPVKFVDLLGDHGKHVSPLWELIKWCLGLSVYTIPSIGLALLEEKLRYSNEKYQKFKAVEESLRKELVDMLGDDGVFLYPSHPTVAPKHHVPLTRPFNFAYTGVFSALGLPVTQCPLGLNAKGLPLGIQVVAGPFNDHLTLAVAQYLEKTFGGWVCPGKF

[2] = target: T2, Fatty-acid amide hydrolase 1 (Rattus norvegicus, UniProt P97612); test: Inhibition of rat FAAH assessed as reduction in [14C]oleamide conversion to oleic acid by Lineweaver-Burk plot analysis
T2 sequence (P97612 whole entry): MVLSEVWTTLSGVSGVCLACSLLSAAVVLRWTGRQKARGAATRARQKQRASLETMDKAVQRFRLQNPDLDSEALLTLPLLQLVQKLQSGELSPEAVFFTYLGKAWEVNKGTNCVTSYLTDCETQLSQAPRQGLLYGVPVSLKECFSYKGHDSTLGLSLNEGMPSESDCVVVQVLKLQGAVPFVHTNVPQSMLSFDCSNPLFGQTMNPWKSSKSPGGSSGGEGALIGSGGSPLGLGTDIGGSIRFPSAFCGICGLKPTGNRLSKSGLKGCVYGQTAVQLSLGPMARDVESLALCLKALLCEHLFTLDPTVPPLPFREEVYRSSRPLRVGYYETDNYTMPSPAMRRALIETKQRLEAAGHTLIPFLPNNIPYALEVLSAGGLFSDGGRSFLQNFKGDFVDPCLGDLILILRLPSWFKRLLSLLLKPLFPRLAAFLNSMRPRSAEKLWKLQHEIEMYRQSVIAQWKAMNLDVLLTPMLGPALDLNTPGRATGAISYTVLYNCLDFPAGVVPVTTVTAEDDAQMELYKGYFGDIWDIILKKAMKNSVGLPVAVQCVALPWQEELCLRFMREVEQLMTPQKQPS

[3] = target: T3, Monoglyceride lipase (Rattus norvegicus, UniProt Q8R431); test: Inhibition of rat MAGL preincubated for 30 mins followed by FP-Rh addition after 30 mins by gel-based ABPP assay
T3 sequence (Q8R431 whole entry): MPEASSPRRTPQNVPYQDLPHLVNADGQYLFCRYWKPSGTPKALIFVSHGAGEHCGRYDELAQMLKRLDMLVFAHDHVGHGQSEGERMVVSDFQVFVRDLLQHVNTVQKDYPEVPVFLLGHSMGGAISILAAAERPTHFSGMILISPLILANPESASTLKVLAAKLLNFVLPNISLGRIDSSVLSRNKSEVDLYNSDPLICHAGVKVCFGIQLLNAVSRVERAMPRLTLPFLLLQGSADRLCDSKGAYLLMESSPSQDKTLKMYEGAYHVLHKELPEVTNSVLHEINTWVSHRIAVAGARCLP

[4] = target: T4, N-acylethanolamine-hydrolyzing acid amidase (Homo sapiens, UniProt Q02083); test: Inhibition of recombinant human NAAA expressed in HEK293 cells preincubated for 10 mins followed by PAMCA substrate addition after 30 mins by fluorescence assay; assay type: cell-based
T4 sequence (Q02083 whole entry): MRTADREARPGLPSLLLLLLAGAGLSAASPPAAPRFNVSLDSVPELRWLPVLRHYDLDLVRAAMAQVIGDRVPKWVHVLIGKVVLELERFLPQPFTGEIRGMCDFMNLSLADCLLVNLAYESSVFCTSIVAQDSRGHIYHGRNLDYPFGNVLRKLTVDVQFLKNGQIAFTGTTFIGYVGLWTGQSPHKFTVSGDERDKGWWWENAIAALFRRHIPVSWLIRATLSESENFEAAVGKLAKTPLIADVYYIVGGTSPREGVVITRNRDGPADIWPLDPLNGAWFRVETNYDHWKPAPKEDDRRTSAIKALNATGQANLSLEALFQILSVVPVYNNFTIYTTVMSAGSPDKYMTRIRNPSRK

[5] = Half life in rat plasma at 3 uM by LC/MS analysis; assay type: ADME, cell-free
[6] = target: T2, Fatty-acid amide hydrolase 1; test: Inhibition of rat brain microsomal FAAH using N-(2-hydroxyethyl)-4-pyren-1-yl-butanamide as substrate after 60 mins by RP HPLC based fluorescence assay
[7] = target: T3, Monoglyceride lipase; test: Inhibition of recombinant rat N-terminal histidine tagged MAGL expressed in Escherichia coli Rosetta 2 (DE3) pLysS cells preincubated for 10 mins followed by 2-OG substrate addition after 10 mins by LC/MS analysis
[8] = target: T2, Fatty-acid amide hydrolase 1; test: Inhibition of Sprague-Dawley rat brain FAAH preincubated for 10 mins followed by [3H]-anandamide substrate addition after 30 mins by liquid scintillation counting method
[9] = target: T2, Fatty-acid amide hydrolase 1; test: Inhibition of rat FAAH
[10] = target: T3, Monoglyceride lipase; test: Inhibition of recombinant rat MAGL expressed in Escherichia coli using 2-AG as substrate
[11] = target: T5, Monoglyceride lipase (Homo sapiens, UniProt Q99685); test: Inhibition of recombinant human N-terminal His6-tagged and C-terminal Strep-tagged MAGL expressed in Escherichia coli Rosetta using [3H]2-OG as substrate after 10 mins by liquid scintillation counting method
T5 sequence (Q99685 whole entry): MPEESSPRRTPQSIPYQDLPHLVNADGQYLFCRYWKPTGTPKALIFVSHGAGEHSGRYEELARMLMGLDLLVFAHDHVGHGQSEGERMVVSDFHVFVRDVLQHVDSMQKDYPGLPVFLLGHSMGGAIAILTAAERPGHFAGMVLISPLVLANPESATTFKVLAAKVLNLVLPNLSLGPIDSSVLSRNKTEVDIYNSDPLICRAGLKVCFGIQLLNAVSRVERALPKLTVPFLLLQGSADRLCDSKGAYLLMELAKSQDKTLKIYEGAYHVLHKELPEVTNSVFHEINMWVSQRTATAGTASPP

[12] = target: T6, Monoglyceride lipase (Mus musculus, UniProt O35678); test: Inhibition of mouse MAGL
T6 sequence (O35678 whole entry): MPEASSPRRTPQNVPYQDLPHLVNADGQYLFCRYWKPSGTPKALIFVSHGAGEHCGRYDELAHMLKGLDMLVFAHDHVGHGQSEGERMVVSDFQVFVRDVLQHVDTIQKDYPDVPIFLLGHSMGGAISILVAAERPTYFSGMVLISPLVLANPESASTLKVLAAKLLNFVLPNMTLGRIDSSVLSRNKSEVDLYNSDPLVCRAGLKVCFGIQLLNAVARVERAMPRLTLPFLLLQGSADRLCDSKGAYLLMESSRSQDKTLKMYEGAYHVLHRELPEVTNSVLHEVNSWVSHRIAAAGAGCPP

[13] = target: T3, Monoglyceride lipase; test: Inhibition of rat MAGL
[14] = target: T2, Fatty-acid amide hydrolase 1; test: Inhibition of FAAH in Wistar rat brain membranes using [3H]-anandamide as substrate preincubated for 10 mins followed by substrate addition measured after 4 mins by liquid scintillation counting method; assay type: cell membranes, Membrane

Q: Which IC50 [1] does the source give for `O=C(CCCCCCc1ccccc1)c1ncc(-c2ccccn2)o1` here?
A: 13.4 nM

Q: With `O=C(CCCCCCCc1ccccc1)c1nc2ncccc2o1` as the molecule, how does the Ki [2] read?
A: 0.39 nM

Q: For `CCCCCCCCCC(=O)c1nc2ncccc2o1`, which Ki [2] is on record?
A: 0.75 nM

Q: For `CN(Cc1cccc(-c2ccncc2)c1)C(=O)OC(C(F)(F)F)C(F)(F)F`, which IC50 [3] is on record?
A: 385 nM

Q: For `CC(C)(C)[C@@H]1OC(=O)[C@@H]1NC(=O)OCCCCCc1ccccc1`, which IC50 [4] is on record?
A: 302 nM

Q: With `CC(C)(C)[C@@H]1OC(=O)[C@H]1NC(=O)OCc1ccc(-c2ccccc2)cc1` as the molecule, how does the IC50 [4] read?
A: 507 nM

Q: And the half-life at 3 µM [5]?
A: > 5 min

Q: Which IC50 [1] does the source give for `NC(=O)c1cccc(-c2cccc(OC(=O)NC3CCCCC3)c2)c1` [URB-597] here?
A: 5 nM

Q: Which IC50 [6] does the source give for `O=C(NCCCCCCn1nnc(-c2ccccc2)n1)Oc1cccnc1` here?
A: 11 nM

Q: Which Ki [2] does the source give for `O=C(CCCCCCCCc1ccccc1)c1nc2ncccc2o1` here?
A: 0.52 nM

Q: For `CCCCCCCCn1sc2ccccc2c1=O`, which IC50 [7] is on record?
A: 20 nM

Q: With `O=C(NCCCCCCCCn1nnc(-c2ccccc2)n1)Oc1ccccc1` as the molecule, how does the IC50 [6] read?
A: 110 nM

Q: With `O=C(NC1CCCCC1)OCc1ncn(Cc2ccccc2)n1` as the molecule, how does the IC50 [8] read?
A: 51.5 µM

Q: With `COc1nn(-c2ccc(NC(=O)OCc3ccccc3)c(C)c2)c(=O)o1` as the molecule, how does the IC50 [9] read?
A: 86 nM

Q: Which IC50 [6] does the source give for `O=C(NCCCCCCCn1nnc(-c2ccccc2)n1)Oc1ccccc1` here?
A: 81 nM

Q: Which IC50 [10] does the source give for `COC(=O)[C@]1(C)CC[C@]2(C)CC[C@]3(C)C4=CC=C5C(=CC(=O)C(O)=C5C)[C@]4(C)CC[C@@]3(C)C2C1` (stereo not given in full) here?
A: 93 nM

Q: For `CCN(CC)C(=S)SSC(=S)N(CC)CC`, which IC50 [11] is on record?
A: 360 nM

Q: Which results are given for `O=C(N1CCC(=C(c2ccc3c(c2)OCO3)c2ccc3c(c2)OCO3)CC1)n1cncn1`?
A: IC50 [12]: 0.191 nM; IC50 [13]: 0.269 nM

Q: With `O=C(NCCCCCCn1nnc(-c2cccc(Cl)c2)n1)Oc1ccccc1` as the molecule, how does the IC50 [6] read?
A: 200 nM

Q: For `CCCCCCCCn1sccc1=O`, which IC50 [7] is on record?
A: 88 nM

Q: For `O=C(CCCCCCC1CCCCC1)N[C@H]1CNC1=O`, which IC50 [4] is on record?
A: 280 nM

Q: Which IC50 [14] does the source give for `O=C(NC1CCCCC1)Oc1ccc(O)c(-c2ccccc2)c1` here?
A: 30 nM

Q: For `O=C(NC1CCCCC1)Oc1cccc(-c2ccccc2)c1`, which IC50 [14] is on record?
A: 25.6 nM

Q: For `CC(C)=CCC[C@@H](C)[C@@H]1CCC[C@]2(C)C3=C(CC[C@@]12C)[C@@]1(C)CC[C@H](O)C(C)(C)[C@@H]1CC3`, which IC50 [10] is on record?
A: 315 nM
